This note sets out measurements from ChEMBL document CHEMBL5442219.

The structures appear in SMILES notation.

What all share (details): Compound concentration 10 µM
The target of test [1] is Histamine H4 receptor (Homo sapiens) (UniProt Q9H3N8).
Test [2] deals with D(1B) dopamine receptor (Homo sapiens) (UniProt P21918).
Test [3] has as its target 5-hydroxytryptamine receptor 1D (Homo sapiens) (UniProt P28221).
The target in test [4] is Histamine H1 receptor (Homo sapiens) (UniProt P35367).
For test [5], the target named is Beta-2 adrenergic receptor (Homo sapiens) (UniProt P07550).
Beta-2 adrenergic receptor (Homo sapiens), sequence (P07550 whole entry, looked up): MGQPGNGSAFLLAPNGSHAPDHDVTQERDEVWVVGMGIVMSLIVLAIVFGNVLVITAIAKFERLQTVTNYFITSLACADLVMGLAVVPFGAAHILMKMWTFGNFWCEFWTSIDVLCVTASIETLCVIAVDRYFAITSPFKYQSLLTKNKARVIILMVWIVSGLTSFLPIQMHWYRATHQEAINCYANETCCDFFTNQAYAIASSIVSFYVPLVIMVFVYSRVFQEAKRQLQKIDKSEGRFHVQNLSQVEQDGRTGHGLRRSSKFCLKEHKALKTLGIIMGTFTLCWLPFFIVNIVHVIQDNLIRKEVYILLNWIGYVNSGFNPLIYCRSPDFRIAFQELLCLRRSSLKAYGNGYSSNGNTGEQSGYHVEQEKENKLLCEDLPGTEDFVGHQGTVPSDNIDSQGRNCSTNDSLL
The target in test [6] is Histamine H2 receptor (Homo sapiens) (UniProt P25021).
Histamine H2 receptor (Homo sapiens), sequence (P25021 whole entry): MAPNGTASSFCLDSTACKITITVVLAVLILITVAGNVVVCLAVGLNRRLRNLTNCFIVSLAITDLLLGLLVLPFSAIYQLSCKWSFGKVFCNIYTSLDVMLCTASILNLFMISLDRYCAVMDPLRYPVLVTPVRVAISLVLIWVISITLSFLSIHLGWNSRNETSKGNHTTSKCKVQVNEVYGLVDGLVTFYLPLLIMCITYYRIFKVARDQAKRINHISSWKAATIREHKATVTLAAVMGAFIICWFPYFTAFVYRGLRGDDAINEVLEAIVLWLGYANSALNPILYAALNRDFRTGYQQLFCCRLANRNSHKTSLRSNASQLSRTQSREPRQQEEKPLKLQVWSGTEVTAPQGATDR
The target of test [7] is 5-hydroxytryptamine receptor 6 (Homo sapiens) (UniProt P50406).
Test [8] has as its target Beta-1 adrenergic receptor (Homo sapiens) (UniProt P08588).
Test [9] deals with T1, Alpha-2B adrenergic receptor (Homo sapiens) (UniProt P18089).
T1 sequence (whole entry): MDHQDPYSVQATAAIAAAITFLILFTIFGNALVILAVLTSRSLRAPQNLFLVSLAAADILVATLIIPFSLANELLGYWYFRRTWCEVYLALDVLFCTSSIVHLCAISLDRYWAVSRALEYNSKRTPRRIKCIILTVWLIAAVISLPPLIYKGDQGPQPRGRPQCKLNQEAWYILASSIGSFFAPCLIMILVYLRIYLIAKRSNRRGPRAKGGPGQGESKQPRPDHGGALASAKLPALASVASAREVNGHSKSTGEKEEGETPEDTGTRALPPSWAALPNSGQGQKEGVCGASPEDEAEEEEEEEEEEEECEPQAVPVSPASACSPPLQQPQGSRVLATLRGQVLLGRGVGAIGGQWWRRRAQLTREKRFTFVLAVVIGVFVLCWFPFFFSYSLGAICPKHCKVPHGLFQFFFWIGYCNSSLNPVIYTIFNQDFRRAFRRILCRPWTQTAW

In test [10] the target is T2, 5-hydroxytryptamine receptor 2C (Homo sapiens) (UniProt P28335).
T2 sequence (whole entry): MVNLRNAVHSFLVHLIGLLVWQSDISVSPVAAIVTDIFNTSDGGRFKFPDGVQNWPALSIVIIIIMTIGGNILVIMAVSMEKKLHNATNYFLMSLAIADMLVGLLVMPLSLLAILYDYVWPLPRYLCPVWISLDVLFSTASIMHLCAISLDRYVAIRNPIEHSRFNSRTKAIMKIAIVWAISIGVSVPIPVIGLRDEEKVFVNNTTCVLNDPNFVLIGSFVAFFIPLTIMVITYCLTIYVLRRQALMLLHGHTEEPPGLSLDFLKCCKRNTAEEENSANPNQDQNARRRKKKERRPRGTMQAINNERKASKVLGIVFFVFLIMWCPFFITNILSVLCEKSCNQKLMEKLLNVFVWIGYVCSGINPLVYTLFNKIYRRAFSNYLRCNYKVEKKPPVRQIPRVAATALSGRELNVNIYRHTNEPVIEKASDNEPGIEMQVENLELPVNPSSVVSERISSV

Test [11] deals with 5-hydroxytryptamine receptor 5A (Homo sapiens) (UniProt P47898).
5-hydroxytryptamine receptor 5A (Homo sapiens), sequence (P47898 whole entry): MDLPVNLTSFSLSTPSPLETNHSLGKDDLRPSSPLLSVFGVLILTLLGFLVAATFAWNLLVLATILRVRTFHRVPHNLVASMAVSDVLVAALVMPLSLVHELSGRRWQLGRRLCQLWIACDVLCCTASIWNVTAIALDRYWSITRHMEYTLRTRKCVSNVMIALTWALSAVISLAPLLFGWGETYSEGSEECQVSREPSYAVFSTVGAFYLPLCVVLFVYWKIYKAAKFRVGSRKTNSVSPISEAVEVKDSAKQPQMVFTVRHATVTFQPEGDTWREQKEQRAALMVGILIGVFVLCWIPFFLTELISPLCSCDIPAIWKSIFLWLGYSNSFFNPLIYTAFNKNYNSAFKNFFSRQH
Test [12] addresses T3, Muscarinic acetylcholine receptor M1 (Homo sapiens) (UniProt P11229).
T3 sequence (whole entry): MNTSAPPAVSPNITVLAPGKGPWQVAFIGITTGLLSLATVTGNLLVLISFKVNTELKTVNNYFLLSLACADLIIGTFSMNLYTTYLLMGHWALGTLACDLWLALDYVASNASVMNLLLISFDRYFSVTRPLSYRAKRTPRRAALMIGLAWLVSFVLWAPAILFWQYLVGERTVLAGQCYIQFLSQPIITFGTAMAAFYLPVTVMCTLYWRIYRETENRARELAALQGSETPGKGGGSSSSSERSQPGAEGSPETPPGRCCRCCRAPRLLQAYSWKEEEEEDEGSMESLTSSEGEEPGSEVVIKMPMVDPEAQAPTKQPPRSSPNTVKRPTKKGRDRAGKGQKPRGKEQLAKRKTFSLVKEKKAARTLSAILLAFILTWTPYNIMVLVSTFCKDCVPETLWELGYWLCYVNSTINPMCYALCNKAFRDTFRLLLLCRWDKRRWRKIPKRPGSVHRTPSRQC

In test [13] the target is T4, 5-hydroxytryptamine receptor 1A (Homo sapiens) (UniProt P08908).
T4 sequence (whole entry): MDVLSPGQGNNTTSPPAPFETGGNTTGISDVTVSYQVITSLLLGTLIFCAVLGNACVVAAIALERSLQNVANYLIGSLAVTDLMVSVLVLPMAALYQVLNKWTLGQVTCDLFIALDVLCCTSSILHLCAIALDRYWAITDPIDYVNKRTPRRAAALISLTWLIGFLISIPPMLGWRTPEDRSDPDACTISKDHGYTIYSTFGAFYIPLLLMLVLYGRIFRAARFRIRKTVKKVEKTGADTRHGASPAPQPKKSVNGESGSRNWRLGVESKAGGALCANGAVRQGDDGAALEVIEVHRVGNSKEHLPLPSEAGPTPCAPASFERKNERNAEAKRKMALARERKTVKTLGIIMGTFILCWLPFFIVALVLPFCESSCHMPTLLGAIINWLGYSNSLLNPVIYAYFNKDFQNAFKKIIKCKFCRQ

Test [14] concerns the target Sigma non-opioid intracellular receptor 1 (Homo sapiens) (UniProt Q99720).
Test [15] has as its target Translocator protein (Homo sapiens) (UniProt P30536).
Test [16] deals with Sodium-dependent noradrenaline transporter (Homo sapiens) (UniProt P23975).
Sodium-dependent noradrenaline transporter (Homo sapiens), sequence (P23975 whole entry): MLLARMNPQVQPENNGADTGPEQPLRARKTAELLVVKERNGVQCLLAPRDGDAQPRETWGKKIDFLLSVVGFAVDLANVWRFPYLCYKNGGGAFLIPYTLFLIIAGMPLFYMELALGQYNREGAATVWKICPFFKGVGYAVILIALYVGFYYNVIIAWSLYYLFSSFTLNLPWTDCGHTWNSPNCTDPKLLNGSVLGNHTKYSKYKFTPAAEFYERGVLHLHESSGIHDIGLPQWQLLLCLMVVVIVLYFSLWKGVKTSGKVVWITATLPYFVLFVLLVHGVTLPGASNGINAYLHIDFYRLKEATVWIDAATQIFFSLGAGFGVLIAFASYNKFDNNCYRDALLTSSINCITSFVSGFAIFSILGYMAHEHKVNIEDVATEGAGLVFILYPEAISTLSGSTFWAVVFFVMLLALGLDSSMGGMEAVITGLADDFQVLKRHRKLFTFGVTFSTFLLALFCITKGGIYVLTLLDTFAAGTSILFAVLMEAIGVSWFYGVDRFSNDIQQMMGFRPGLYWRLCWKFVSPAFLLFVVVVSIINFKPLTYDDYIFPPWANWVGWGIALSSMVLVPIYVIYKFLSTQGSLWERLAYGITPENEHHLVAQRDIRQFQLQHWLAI
For test [17], the target named is D(1A) dopamine receptor (Homo sapiens) (UniProt P21728).
D(1A) dopamine receptor (Homo sapiens), sequence (P21728 whole entry): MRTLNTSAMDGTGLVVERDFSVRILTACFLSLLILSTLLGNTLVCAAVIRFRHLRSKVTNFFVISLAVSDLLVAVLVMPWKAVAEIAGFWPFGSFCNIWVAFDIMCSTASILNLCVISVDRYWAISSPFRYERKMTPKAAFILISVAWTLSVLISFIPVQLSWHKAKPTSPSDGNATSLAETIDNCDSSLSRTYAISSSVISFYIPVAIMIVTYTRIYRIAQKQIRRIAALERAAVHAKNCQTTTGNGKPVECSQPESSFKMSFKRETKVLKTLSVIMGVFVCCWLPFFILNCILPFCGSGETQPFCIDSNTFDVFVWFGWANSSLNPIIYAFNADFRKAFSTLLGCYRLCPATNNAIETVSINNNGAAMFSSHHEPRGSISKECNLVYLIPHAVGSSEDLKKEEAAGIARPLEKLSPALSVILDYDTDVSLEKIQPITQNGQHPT
The target in test [18] is Sigma intracellular receptor 2 (Homo sapiens) (UniProt Q5BJF2).
Sigma intracellular receptor 2 (Homo sapiens), sequence (Q5BJF2 whole entry): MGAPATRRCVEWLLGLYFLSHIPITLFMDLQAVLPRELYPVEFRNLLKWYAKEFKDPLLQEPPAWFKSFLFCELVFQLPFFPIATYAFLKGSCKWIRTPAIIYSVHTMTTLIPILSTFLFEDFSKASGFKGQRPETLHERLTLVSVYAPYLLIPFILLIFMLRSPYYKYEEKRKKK
In test [19] the target is 5-hydroxytryptamine receptor 1E (Homo sapiens) (UniProt P28566).
Test [20] deals with 5-hydroxytryptamine receptor 2A (Homo sapiens) (UniProt P28223).
5-hydroxytryptamine receptor 2A (Homo sapiens), sequence (P28223 whole entry): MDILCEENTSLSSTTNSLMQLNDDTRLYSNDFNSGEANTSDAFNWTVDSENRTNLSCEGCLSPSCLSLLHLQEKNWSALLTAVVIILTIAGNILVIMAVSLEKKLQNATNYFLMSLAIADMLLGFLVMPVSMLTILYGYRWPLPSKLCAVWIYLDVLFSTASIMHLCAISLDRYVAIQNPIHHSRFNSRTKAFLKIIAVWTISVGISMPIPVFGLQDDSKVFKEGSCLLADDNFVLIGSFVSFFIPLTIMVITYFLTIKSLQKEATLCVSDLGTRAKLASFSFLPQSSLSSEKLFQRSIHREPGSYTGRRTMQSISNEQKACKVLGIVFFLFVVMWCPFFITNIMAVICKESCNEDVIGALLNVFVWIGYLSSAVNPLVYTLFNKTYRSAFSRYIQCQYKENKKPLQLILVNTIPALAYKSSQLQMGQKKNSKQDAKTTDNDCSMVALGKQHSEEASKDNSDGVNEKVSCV
The target of test [21] is Kappa-type opioid receptor (Homo sapiens) (UniProt P41145).
Kappa-type opioid receptor (Homo sapiens), sequence (P41145 whole entry): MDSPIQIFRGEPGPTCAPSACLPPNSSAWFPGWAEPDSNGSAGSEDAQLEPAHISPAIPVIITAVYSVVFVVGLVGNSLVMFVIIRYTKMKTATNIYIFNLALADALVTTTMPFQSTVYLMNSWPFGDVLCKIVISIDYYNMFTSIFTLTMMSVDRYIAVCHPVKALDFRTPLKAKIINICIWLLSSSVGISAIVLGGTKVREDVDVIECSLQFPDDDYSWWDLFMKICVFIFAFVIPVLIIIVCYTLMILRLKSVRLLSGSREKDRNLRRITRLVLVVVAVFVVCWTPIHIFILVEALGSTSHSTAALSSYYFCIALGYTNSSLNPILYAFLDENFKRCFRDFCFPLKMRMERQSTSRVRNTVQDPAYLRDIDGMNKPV
Test [22] deals with Mu-type opioid receptor (Homo sapiens) (UniProt P35372).

Beta-1 adrenergic receptor (Homo sapiens), sequence (P08588 whole entry, looked up): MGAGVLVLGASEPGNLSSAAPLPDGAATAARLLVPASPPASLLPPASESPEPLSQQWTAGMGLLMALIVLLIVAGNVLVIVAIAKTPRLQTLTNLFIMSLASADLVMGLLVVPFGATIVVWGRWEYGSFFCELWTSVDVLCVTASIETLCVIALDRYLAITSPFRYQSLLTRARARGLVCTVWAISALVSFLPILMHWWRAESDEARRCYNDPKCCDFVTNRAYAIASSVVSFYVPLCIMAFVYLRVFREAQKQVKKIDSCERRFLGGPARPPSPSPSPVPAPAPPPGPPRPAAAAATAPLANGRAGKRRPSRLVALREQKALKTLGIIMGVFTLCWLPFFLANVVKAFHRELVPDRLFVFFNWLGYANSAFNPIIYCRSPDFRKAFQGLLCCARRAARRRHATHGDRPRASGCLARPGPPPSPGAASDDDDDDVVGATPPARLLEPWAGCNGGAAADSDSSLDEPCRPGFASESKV
5-hydroxytryptamine receptor 1D (Homo sapiens), sequence (P28221 whole entry): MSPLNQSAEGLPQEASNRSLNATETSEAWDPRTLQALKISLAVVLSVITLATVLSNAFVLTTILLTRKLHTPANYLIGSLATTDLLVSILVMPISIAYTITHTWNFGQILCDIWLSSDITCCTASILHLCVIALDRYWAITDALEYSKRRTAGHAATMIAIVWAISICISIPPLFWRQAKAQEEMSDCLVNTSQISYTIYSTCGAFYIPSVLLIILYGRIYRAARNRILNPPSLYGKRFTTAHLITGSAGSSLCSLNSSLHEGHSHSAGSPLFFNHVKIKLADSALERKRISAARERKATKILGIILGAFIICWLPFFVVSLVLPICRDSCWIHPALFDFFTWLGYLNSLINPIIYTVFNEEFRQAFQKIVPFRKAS
Sigma non-opioid intracellular receptor 1 (Homo sapiens), sequence (Q99720 whole entry): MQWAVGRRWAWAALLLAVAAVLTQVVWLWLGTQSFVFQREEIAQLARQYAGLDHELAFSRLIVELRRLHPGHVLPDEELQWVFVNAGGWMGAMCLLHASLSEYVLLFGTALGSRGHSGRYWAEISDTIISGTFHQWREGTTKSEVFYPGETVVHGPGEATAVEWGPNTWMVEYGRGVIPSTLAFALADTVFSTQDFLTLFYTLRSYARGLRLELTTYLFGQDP
Histamine H4 receptor (Homo sapiens), sequence (Q9H3N8 whole entry): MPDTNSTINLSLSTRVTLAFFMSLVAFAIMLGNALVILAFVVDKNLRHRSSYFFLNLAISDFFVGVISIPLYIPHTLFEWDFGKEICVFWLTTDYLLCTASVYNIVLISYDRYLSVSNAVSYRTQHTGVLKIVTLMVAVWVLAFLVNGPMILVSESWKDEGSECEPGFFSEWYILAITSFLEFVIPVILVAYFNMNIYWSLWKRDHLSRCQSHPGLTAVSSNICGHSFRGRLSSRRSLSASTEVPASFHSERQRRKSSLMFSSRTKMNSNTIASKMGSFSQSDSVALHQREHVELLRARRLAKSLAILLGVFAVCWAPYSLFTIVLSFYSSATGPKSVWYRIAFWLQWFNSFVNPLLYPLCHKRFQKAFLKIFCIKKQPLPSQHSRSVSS
Translocator protein (Homo sapiens), sequence (P30536 whole entry): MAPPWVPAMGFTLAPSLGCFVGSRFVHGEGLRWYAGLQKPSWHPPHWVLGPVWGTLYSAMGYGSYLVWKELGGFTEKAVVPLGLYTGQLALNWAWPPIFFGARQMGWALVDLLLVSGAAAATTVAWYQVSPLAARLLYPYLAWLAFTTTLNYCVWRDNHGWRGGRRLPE

Take `Cc1csc(NC(=O)c2cc(F)cc(Oc3cncnc3)c2)n1`: the inhibition in test [1] is 0.79%; in test [2] it was 46%; in test [3], 5.84%; in test [4], -6.12%; in test [5], 8.79%; in [6] it was 28.4%. In addition, the inhibition was 7.85% in [7]; -2.16% in test [8]; 6.73% in test [9]; 0.59% in test [10]; -6.54% in [11]; -0.94% in [12]. Besides, the inhibition is 20.4% in test [13]; 37.2% in test [14]; 37.4% in [15]; 10.9% in [16]; -5.62% in test [17]; 41.8% in [18]. The inhibition in [19] is -3.74%; in test [20], 1.92%; in test [21], 18.9%; in [22], -8.28%.

Take `Cc1c(C2=CCN(C(=O)N(C)C(C)C)CC2)nnn1-c1cccnc1F`: the inhibition in test [1] was 9.6%; in test [4] it was 60.9%; in test [5], -6.84%; in [6], 29.8%; in [7], 1.27%; in [8] it was -5.97%. Further, the inhibition in [9] is 21.3%; in test [10], -0.1%; in test [11], 7.43%; in [12] it was 2.87%; in test [13], 17%; in test [14], 48.4%. The inhibition is -1.56% in test [15]; 64.4% in test [18]; 20.2% in test [19]; 85.9% in test [20]; 36.2% in [22].

For the molecule `COC1CCN(c2cccc(-c3cc(NC(C)=O)nc(-n4nc(C)cc4C)n3)n2)CC1`, the inhibition in test [1] was 5.32%; in test [2], 3.58%; in test [4], 14.4%; in test [5] it was 2.28%; in test [6], 26%; in test [7], 40.8%. Moreover, the inhibition in test [8] was 41.4%; in test [9] it was -0.88%; in [10], 3.48%; in test [11], -1.72%; in test [12] it was 1.9%; in test [13], 23.3%. Moreover, the inhibition in [14] is 80.2%; in test [15] it was 70.3%; in test [17], -3.87%; in test [18], 36.3%; in test [19], 15.2%; in [20], 1.6%. For the same molecule, in test [22], the inhibition was 27.3%.

For the molecule `Cc1nnn(-c2ccc(-c3ccc(C4(C(=O)O)CC4)cc3)cc2)c1NC(=O)O[C@H](C)c1ccccc1`, the inhibition was -4.07% in test [1]; 43.6% in test [2]; 16.8% in test [3]; 52.8% in test [4]; 6.66% in test [5]; 4.74% in [6]. Also, the inhibition is 37.4% in test [7]; -7.78% in [8]; 4.78% in test [9]; 15.6% in [11]; 7.62% in [12]; 2.96% in test [13]. The inhibition in test [14] was 20.9%; in test [15], 3.3%; in test [16], 2.8%; in test [17], -4.64%; in test [18], -0.49%; in test [19], 1.32%. For the same molecule, the values for the inhibition in test [20], in [21] and in test [22] were 2.49%, -4.59% and -8.07%, respectively.

With `COc1ccnc(N2CCC3(CCCN(Cc4c[nH]c5ccccc45)C3=O)CC2)n1`, the inhibition is -2.57% in test [1]; 20.4% in [2]; 13.2% in test [3]; 23.1% in test [4]; 11.9% in test [5]; -7.83% in [6]. Besides, the inhibition is 19.4% in test [7]; -7.28% in test [9]; 0.97% in [10]; -9.26% in test [11]; 0.43% in [12]; 72.4% in test [13]. In addition, the inhibition in test [14] is 16%; in [15], 75.8%; in test [16], 16.6%; in test [17], -4.13%; in test [18], 34.7%; in test [19], -3.29%. For the same molecule, the inhibition was 7.53% in test [20], 6.61% in test [21] and -4.41% in [22].

One may read the inhibition as the drop in the measured response relative to a control, in per cent.
